# Literature values as cited in article PMC11172375, “Preclinical Evaluation of Biodistribution and Toxicity of [^211At]PSMA-5 in Mice and Primates for the Targeted Alpha Therapy against Prostate Cancer” (International Journal of Molecular Sciences, 2024).
# Columns and labels:
# [1] = test system: metastatic castration-resistant prostate cancer; set-up: method as in PMID 34161051; settings: patients with mCRPC previously treated with ARPI and taxane, VISION trial; cited from earlier work
# [2] = test system: metastatic castration-resistant prostate cancer; set-up: method as in doi:10.1200/JCO.2022.40.6_suppl.TPS211; settings: taxane-naïve patients with mCRPC, PSMAfore trial; cited from earlier work
# [3] = cited from earlier work
# [4] = test system: prostate cancer; set-up: method as in PMID 27390158, PMID 38218192, PMID 33293081, PMID 33008928, PMID 37247612; settings: patients resistant to beta therapy with [177Lu]PSMA-617; cited from earlier work
# [5] = set-up: method as in PMID 27230930; settings: mice treated with 1.5MBq (75MBq/kg); cited from earlier work
smiles,measurement,setting,value
O=C([O-])CN1CCN(CC(=O)[O-])CCN(CC(=O)NCC2CCC(C(=O)N[C@@H](Cc3ccc4ccccc4c3)C(=O)NCCCC[C@H](NC(=O)N[C@@H](CCC(=O)O)C(=O)O)C(=O)O)CC2)CCN(CC(=O)[O-])CC1.[177Lu+3] (stereo partly drawn) [[^177Lu]PSMA-617],overall survival compared to the standard of care,[1],significantly extended overall survival
same,radiographic progression-free survival compared to ARPI changes,[2],prolong radiographic progression-free survival
[211At-].[Na+] [[^211At]NaAt],uptake in the thyroid,[3]; 3 h post-administration,509 %ID/g
same,thyroid histology,[3]; even in low-dose groups (5 MBq/kg),thyroid ablation effects
O=C([O-])CC[C@H](NC(=O)N[C@@H](CCCCNC(=O)[C@H](Cc1ccc2ccccc2c1)NC(=O)C1CCC(CNC(=O)CN2CCN(CC(=O)[O-])CCN(CC(=O)[O-])CCN(CC(=O)[O-])CC2)CC1)C(=O)[O-])C(=O)[O-].[225Ac].[H+].[H+].[H+] (stereo partly drawn) [[^225Ac]PSMA-617],efficacy of alpha therapy,[4],proven effective
"O=C(O)CC[C@H](NC(=O)NC(CCCCNC(=O)c1ccc([211At])cc1)C(=O)O)C(=O)O (stereo partly drawn) [^211At-6, (2S)-2-(3-(1-Carboxy-5-(4-211At-Astatobenzamido)Pentyl)Ureido)-Pentanedioic Acid]",kidney toxicity,[5],late nephropathy with loss of the proximal tubules
